Measurements reported in patent US20100144820A1, “THERAPEUTIC HPPH DOSAGE FOR PDT” (Health Research, Inc., priority 2007, published 2010).
Several values for one entry are separate records, joined by “and”; a condition that tells them apart may be missing. Equal entries are not always repeated. Entries after “also recorded” stand apart in the source; their conditions may differ. Where two headings read alike, the source gives them in different places.

Tests used:
skin = conditions: cited from earlier work
[1] = system: high grade dysplasia-carcinoma in Barrett's Esophagus; assay: HPPH PDT of high grade dysplasia-carcinoma in Barrett's Esophagus; format: in vivo, human
Description: Use of HPPH Photodynamic Therapy for treatment of high grade dysplasia-carcinoma in Barrett's Esophagus. All energy was at 175 Joules/cm at 665±5 nm Light Energy 48 HRS Post Injection. This was a single treatment. Based on studies with PHOTOFRIN®, it is expected that three treatments, instead of just one, would result in about an 77% cure rate.

[2] = system: advanced obstructive endobronchial lung cancer; assay: Palliative treatment of advanced obstructive endobronchial lung cancer; format: in vivo, human; conditions: 0.1 mg/kg; for 2 Month FU response (patients) / Long Term FU outcome (patients): 48 HRS post injection
Description: Palliative Treatment of Advanced Obstructive Endobronchial Lung Cancer For relief in breathing only. Long term responses not expected due to most patients having wide spread disease outside of the area treated by HPPH in the Bronchus. All HPPH doses were 0.1 mg/kg with exposure of 100 to 140 Joules per cm of diffusion fiber at 665±5 nm Light Energy 48 HRS Post Injection.

basal cell carcinoma = assay: Photodynamic therapy for treatment of basal cell carcinoma using HPPH; format: in vivo, human
Description: Table 1 gives results of a study of Photodynamic Therapy for the treatment of basal cell carcinoma using 2-(1-hexyloxyethyl)-2-devinyl pyropheophorbide-a (HPPH).
All dose data converted from actual drug dose in milligrams per square meter of surface area of patient assuming a 70 kg patient having a 2 m^2 surface area.

tumor [3] = conditions: mice, 0.05 to 0.3 mg/kg, 135 Joules/cm^2; cited from earlier work
bronchiogenic carcinoma = assay: Interluminal HPPH-PDT treatment of bronchiogenic carcinoma; format: in vivo, human; conditions: 0.1 mg/kg, 75-85 J/cm, 48 HRS post injection
Description: Dosages are in Joules per cm length of light delivering optical fiber.

normal skin tissue = assay: Adverse effects for normal skin tissue exposed to 133 Joules/cm^2; format: in vivo, human; set-up: key: 1: faint erythema; 2: minimal erythema with sharp borders; 3: pronounced erythema without edema; 6: more than 10% of toxic dose causing peripheral neuropathy in animals; conditions: normal skin exposed to 133 Joules/cm^2
Description: Adverse effects for normal skin tissue when exposed to 133 Joules/cm^2 (approximately equivalent to 30 minutes of midday sun exposure in Northeastern United States): 1=faint erythema; 2=minimal erythema with sharp borders; 3=pronounced erythema without edema; 6- more than 10% of toxic dose causing peripheral neuropathy in animals.

dogs = conditions: cited from earlier work
tumor [4] = conditions: of body weight; cited from earlier work
[5] = 0.075 mg/kg, 175 Joules/cm, 48 HRS post injection, single treatment

Molecule: Oc1cccc(-c2c3nc(c(-c4cccc(O)c4)c4ccc([nH]4)c(-c4cccc(O)c4)c4nc(c(-c5cccc(O)c5)c5ccc2[nH]5)CC4)C=C3)c1 [FOSCAN]
- Reported phototoxicity (skin; 30 minute sun exposure a full week after injection): serious erythema

Molecule: CCCCCCOC(C)c1c(C)c2cc3nc(c4c5[nH]c(cc6nc(cc1[nH]2)C(C)=C6CC)c(C)c5C(=O)C4)C(CCC(=O)O)C3C (stereo not drawn) [HPPH, 2-(1-hexyloxy)-2-ethyl-derivative of pyropheophorbide-a]
- 2 mo/FU response (patients) [1, 5]: 3 PR/2 CR
- Long Term/FU response (patients) [1, 5]: 3 PR/2 CR
- 2 mo/FU response (patients) ([1]; 0.1 mg/kg, 175 Joules/cm, 48 HRS post injection, single treatment): 4 PR/3 CR
- Expected cure rate ([1]; three treatments instead of one, expected based on studies with PHOTOFRIN): ~77%
- 2 Month FU response (patients) ([2]; 100 J/cm): 1 CR/2 PR
- Long Term FU outcome (patients) ([2]; 100 J/cm): 1 disease
- Outcome upon long term follow up ([2]; 100 to 140 Joules per cm): one was disease free
- Systemic or phototoxic side effects ([2]; 100 to 140 Joules per cm): No observable systemic or phototoxic side effects
- 2 Month FU response (patients) ([2]; 110 J/cm): 3 PR
- 2 Month FU response (patients) ([2]; 130 J/cm): 2 CR/1 PR
- Long Term FU outcome (patients) ([2]; 130 J/cm): 2 new
- 2 Month FU response (patients) ([2]; 140 J/cm): 1 CR
- Long Term FU outcome (patients) ([2]; 140 J/cm): 1 new
- Palliative response (improved ability to breathe) ([2]; all cases, 100 to 140 Joules per cm): at least partial palliative response
- Result of treatment of basal cell carcinoma (basal cell carcinoma; 0.05 mg/kg*, 150 J/cm^2 @24 hr*, interpolated from 48 hr data): Complete
- Result of treatment of basal cell carcinoma (basal cell carcinoma; 0.05 mg/kg*, 200 J/cm^2 @24 hr*, interpolated from 48 hr data): Complete
- Result of treatment of basal cell carcinoma (basal cell carcinoma; 0.07 mg/kg*, 150 J/cm^2 @24 hr*, interpolated from 48 hr data): Complete
- Result of treatment of basal cell carcinoma (basal cell carcinoma; 0.07 mg/kg*, 200 J/cm^2 @24 hr*, interpolated from 48 hr data): Complete
- Result of treatment of basal cell carcinoma (basal cell carcinoma; 0.07 mg/kg, 50 J/cm^2 @24 hr): Fail and Partial and Complete
- Result of treatment of basal cell carcinoma (basal cell carcinoma; 0.07 mg/kg, 100 J/cm^2 @24 hr): Complete
- Result of treatment of basal cell carcinoma (basal cell carcinoma; 0.07 mg/kg, 150 J/cm^2 @48 hr): Complete
- Result of treatment of basal cell carcinoma (basal cell carcinoma; 0.07 mg/kg, 200 J/cm^2 @48 hr): Complete
- Result of treatment of basal cell carcinoma (basal cell carcinoma; 0.09 mg/kg, 50 J/cm^2 @24 hr): Partial; also recorded: Complete
- Result of treatment of basal cell carcinoma (basal cell carcinoma; 0.09 mg/kg, 100 J/cm^2 @24 hr): Complete; also recorded: Partial
- Result of treatment of basal cell carcinoma (basal cell carcinoma; 0.09 mg/kg, 150 J/cm^2 @48 hr): Complete
- Result of treatment of basal cell carcinoma (basal cell carcinoma; 0.09 mg/kg, 200 J/cm^2 @48 hr): Complete
- Long term tumor response (tumor [3]): no or extremely little long term tumor response
- Systemic or phototoxic side effects (bronchiogenic carcinoma): No observable systemic or phototoxic side effects
- Adverse Effects Noted (normal skin tissue; 0.05 mg/kg* (interpolated from 48 hr data)): 1
- Adverse Effects Noted (normal skin tissue; 0.07 mg/kg* (interpolated from 48 hr data)): 1
- Adverse Effects Noted (normal skin tissue; 0.07 mg/kg): 1
- Adverse Effects Noted (normal skin tissue; 0.09 mg/kg): 1
- Adverse Effects Noted (normal skin tissue; 0.12 mg/kg* control (interpolated from 48 hr data)): 3 and 2
- Adverse Effects Noted (normal skin tissue; 0.17 mg/kg control): 3-6 and 2-6
- Toxicity finding at lowest toxic dose (dogs; about 1.5 mg/kg in 0.1% Tween 80, test animals, toxicity said due to surfactant): neuropathy is common
- Lowest toxic dose (dogs; in 0.1% Tween 80 (polysorbate 80) surfactant solution, dogs): about 1.5 mg/kg

Molecule: porfimer sodium [PHOTOFRIN]
- Lowest reasonable effective dose / required dose (tumor [4]): 2 mg/kg
- Reported phototoxicity (skin; 2 mg/kg dose, exposure to only 9 Joules/cm^2 of activating light): very serious erythema and necrosis
